Experimental data taken from US20240309060A1, “POLYPEPTIDE BAX/NPM INHIBITORS” (TRUSTEES OF BOSTON UNIVERSITY, priority 2023, published 2024).
One block for each substance: values may come before it. Square brackets hold non-standard residues; d marks the D form. βAla = NCCC(=O)O

Columns and labels:
[1] = target: human NPM1 (Homo sapiens, UniProt P06748); experiment: Surface plasmon resonance (SPR) binding of peptides to human NPM1; conditions: human NPM1, FIG. 14
Excerpt: FIG. 14 depicts a table of the association rate, dissociation rate and the calculated equilibrium dissociation constant for 10 representative therapeutic peptides as measured by Surface Plasmon Resonance (SPR). Mean rates are derived from at least three different peptide concentrations at levels below saturation with human NPM1. Cell survival data are normalized to the negative control (a GFP fragment of similar size to the therapeutic peptides) and represent the mean of at least 3 separate experiments.
FIG. 15 depicts an on-off rate map. A graph of the off-rate (x-axis) and on-rate (y-axis) of 10 representative peptides from different sets of modified peptides. Diagonal dash-lines represent the equilibrium dissociation constant (KD) estimates the NPM1 binding affinity for each peptide based on the distance to the lines.
The 3D helical wheel projection scan predicted that 5 of 6 peptide residues (except for L185) with intermediate effects on post-ischemic cell survival cluster in a single surface domain (FIGS. 6 and 7). These surface residues are likely regulating the binding affinity Kd) between the therapeutic peptide and NPM1, the human target protein. Since binding affinity (Kd) between the peptide drug and NPMB1 partly predicts its efficacy, a high throughput, quantitative surface plasmon resonance (SPR) assay was developed.
SPR was measured for 10 novel polypeptides with select single or double mutations. Both the measured peptide “on” and “off” rates for binding human NPM1 markedly differed (FIG. 15). […] For most modified peptides, greater protection against ischemic stress positively correlated with a low Kd. […] Overall, SPR data combined with cell survival data adequately informs the selection of therapeutic peptides based on the quantifiable effects of R group modifications on these parameters. The combination of SPR binding affinity and cell survival data in vitro effectively rank orders therapeutic peptides for in vivo testing in animals.

[2] = system: primary murine proximal tubule epithelial cells (PTEC); experiment: MTT cell survival assay of kidney cells after ischemic stress in vitro induced by metabolic inhibitors; type: cell-based; conditions: for Cell survival data (ranking of peptides): normalized to negative control GFP fragment, FIG. 14; for Cytoprotective effects during ischemic stress in vitro: peptides 100 nM, metabolic inhibitors 60 min, recovery 6 hr, vs GFP negative control, FIG. 13
Method: FIG. 2 depicts an NPMB1 Alanine Scan. Relative kidney cell survival rate after 70 min ischemic stress in vitro induced by metabolic inhibitors in the presence of NPMB1 (control) vs. 19 different NPMBx polypeptides with single alanine substitutions (2 additional NPMB1 alanine residues were not substituted). Residue numbers (x axis) reflect Bax sequence that binds human NPM1; Survival data are normalized to NPMB1; post-ischemic kidney cell survival is shown in tertiles: (left-most group: 5-40% survival; middle-group: 55-70% and third group: 80-95%); n=3 separate experiments.
Relative kidney cell survival rate after 70 min ischemic stress in vitro induced by transient exposure to metabolic inhibitors in the presence of NPMB polypeptides (Agents 2, 5, 7, 14 that reflect alanine scan polypeptides A173, A187, A179, A176) vs. a non—specific polypeptide (GFP fragment). Survival data normalized to baseline (no stress); *P<0.01vs. baseline; t P<0.05 vs. stress; data represent 3 separate experiments; error bars represent mean+SD.
FIGS. 13A-13B depict the cytoprotective effects of select therapeutic peptides during ischemic stress in vitro. Primary murine proximal tubule epithelial cells (PTEC) were transiently exposed to metabolic inhibitors for 60 min and allowed to recover for 6 hr. to simulate ischemia in vivo; MTT assay estimated cell survival. “Control” (open bars); is a GFP fragment of similar size to the therapeutic peptides was used a negative control; NPMB1 (prototype) serves as a positive control. […] All peptides contained the nuclear localizing sequence (NLS) to enhance peptide delivery to the kidney, a beta linker and both carboxy-and amino terminal modifications to reduce susceptibility to protease digestion; data are mean+standard error; n=3 separate experiments. Figure discloses SEQ ID NOS 139, 134-135, 128, 127, and 138, respectively, in order of appearance.
Structure activity relationships of NPMB1 derivatives were determined through alanine scanning In these studies, 19 polypeptides were produced using methods shown in FIGS. 8-11 and their effect of kidney cell survival after ischemic stress was characterized using the MTT cell survival assay. Based on determination of relative kidney cell survival rate, polypeptides were grouped according to activity as shown in FIG. 2 (orange: 5-40% survival; blue 55-70% survival, or green 80-95% survival).

[3] = system: primary murine proximal tubule epithelial cells (PTEC); conditions: J Am Soc Nephrol 30: 50-62, 2019; cited from earlier work
[4] = system: human nucleophosmin (NPM1); conditions: in vivo (Wang 2019); cited from earlier work
[5] = target: human nucleophosmin (NPM1) (Homo sapiens, UniProt P06748); conditions: previously discovered by the applicant's team; cited from earlier work
human nucleophosmin (NPM1) (Homo sapiens, UniProt P06748), sequence (P06748 whole entry): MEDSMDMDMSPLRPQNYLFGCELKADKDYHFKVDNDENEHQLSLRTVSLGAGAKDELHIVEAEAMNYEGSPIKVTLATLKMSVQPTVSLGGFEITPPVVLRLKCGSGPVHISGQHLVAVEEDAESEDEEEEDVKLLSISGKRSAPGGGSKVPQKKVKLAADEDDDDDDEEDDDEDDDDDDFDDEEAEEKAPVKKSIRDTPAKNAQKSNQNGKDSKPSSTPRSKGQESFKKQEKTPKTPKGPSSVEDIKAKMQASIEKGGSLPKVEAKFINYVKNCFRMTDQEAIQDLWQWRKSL

[6] = system: in vivo mouse model of ischemic AKI; conditions: J Am Soc Nephrol 30: 50-62, 2019; cited from earlier work

human NPM1, sequence (P06748 whole entry, the tested form may be a part): as the sequence (P06748 whole entry) above

Substance: Ac-PKKKRKV-Bala-TATIAVAGVLTASLTIWKKMG-OMe [NPMB1-X-012]
Kd / NPM1 binding affinity in words [1]: relatively low Kd values | Cell survival data (ranking of peptides) [2]: most effective | Cytoprotective effects during ischemic stress in vitro [2]: most robust protection

Substance: Ac-PKKKRKV-Bala-TATLFVAGVLTASLTIWKKMG-OMe [NPMB1-X-013]
Kd / NPM1 binding affinity in words [1]: relatively low Kd values | Cell survival data (ranking of peptides) [2]: most effective | Cytoprotective effects during ischemic stress in vitro [2]: most robust protection

Substance: Ac-PKKKRKV-Bala-TVTIFVAGVLTASLTIWKKMG-OH [NPMB1, prototype peptide, positive control]
Kidney cell death in a cell-based assay [3]: inhibits kidney cell death | NPM/Bax protein interaction [4]: competitively inhibits | Binding to human nucleophosmin (NPM1) [5]: binds | Kidney cell death in an in vivo mouse model of ischemic AKI [6]: inhibits kidney cell death

Substance: Ac-PKKKRKV-Bala-TVTLFVAGVLTASLTIWKKMG-OMe [NPMB1-V-001]
Kd / NPM1 binding affinity in words [1]: relatively low NPM1 binding affinity | Degree of cytoprotection during ischemic stress ([2]; alanine scan and pro-helical mutations): highly effective | Cell survival data (ranking of peptides) [2]: most effective

Kd / NPM1 binding affinity in words [1]: relatively low Kd
Substance: Ac-RREEERREEERREEEK-Bala-TVTIFVAGVLTASLTIWKKMG-OH (Ac-RREEERREEERREEEK[βAla]TVTIFVAGVLTASLTIWKKMG-OH; SMILES CC[C@H](C)[C@H](NC(=O)[C@@H](NC(=O)[C@H](CC(C)C)NC(=O)[C@H](CO)NC(=O)[C@H](C)NC(=O)[C@@H](NC(=O)[C@H](CC(C)C)NC(=O)[C@@H](NC(=O)CNC(=O)[C@H](C)NC(=O)[C@@H](NC(=O)[C@H](Cc1ccccc1)NC(=O)[C@@H](NC(=O)[C@@H](NC(=O)[C@@H](NC(=O)[C@@H](NC(=O)CCNC(=O)[C@H](CCCCN)NC(=O)[C@H](CCC(=O)O)NC(=O)[C@H](CCC(=O)O)NC(=O)[C@H](CCC(=O)O)NC(=O)[C@H](CCCNC(=N)N)NC(=O)[C@H](CCCNC(=N)N)NC(=O)[C@H](CCC(=O)O)NC(=O)[C@H](CCC(=O)O)NC(=O)[C@H](CCC(=O)O)NC(=O)[C@H](CCCNC(=N)N)NC(=O)[C@H](CCCNC(=N)N)NC(=O)[C@H](CCC(=O)O)NC(=O)[C@H](CCC(=O)O)NC(=O)[C@H](CCC(=O)O)NC(=O)[C@H](CCCNC(=N)N)NC(=O)[C@H](CCCNC(=N)N)NC(C)=O)[C@@H](C)O)C(C)C)[C@@H](C)O)[C@@H](C)CC)C(C)C)C(C)C)[C@@H](C)O)[C@@H](C)O)C(=O)N[C@@H](Cc1c[nH]c2ccccc12)C(=O)N[C@@H](CCCCN)C(=O)N[C@@H](CCCCN)C(=O)N[C@@H](CCSC)C(=O)NCC(=O)O) [NPMB1-I-011]
